Source: ChEMBL document CHEMBL1124630, “Fluoronaphthyridines and quinolones as antibacterial agents. 1. Synthesis and structure-activity relationships of new 1-substituted derivatives” (J Med Chem, 1989)
≈ marks a conversion by molar mass, not a printed value.

What was measured:
Canis familiaris = assay: Area under the concentration/ time in plasma after oral administration in dog (25 mg/kg); assay type: ADME, organism-based, Canis lupus familiaris; conditions: in vivo
[1] = Maximum concentration in plasma after oral administration in dog (25 mg/kg); assay type: ADME, organism-based, Canis lupus familiaris; parameters: dose 25 mg/kg, route oral
[2] = Half-life in plasma after oral administration in dog (25 mg/kg); assay type: ADME, organism-based, Canis lupus familiaris
[3] = Urinary recovery after 24 hr in plasma after oral administration in dog (25 mg/kg); assay type: ADME, organism-based, Canis lupus familiaris; conditions: urine, read-out: UR
Escherichia coli [4] = assay: In vitro antibacterial activity against Escherichia coli (A 15119); assay type: functional; conditions: Escherichia coli; read-out: MIC
Enterobacter cloacae = assay: In vitro antibacterial activity against Enterobacter cloacae (A 9656); assay type: functional; conditions: Enterobacter cloacae; read-out: MIC
Klebsiella pneumoniae [5] = assay: In vitro antibacterial activity against Klebsiella pneumoniae (A 9664); assay type: functional; conditions: Klebsiella pneumoniae; read-out: MIC
Morganella morganii [6] = assay: In vitro antibacterial activity against Morganella morganii (A 15153); assay type: functional; conditions: Morganella morganii; read-out: MIC
[7] = Lethal dose of compound in OF1-strain female swiss mice after oral administration; assay type: toxicity, organism-based; conditions: mouse, in vivo
Pseudomonas aeruginosa [8] = assay: In vitro antibacterial activity against Pseudomonas aeruginosa (A 9843); assay type: functional; conditions: Pseudomonas aeruginosa; read-out: MIC
Pseudomonas aeruginosa [9] = assay: In vivo efficacy in systemic infection due to Pseudomonas aeruginosa (A 9843) in mice; assay type: functional; conditions: read-out: PD50
Staphylococcus aureus [10] = assay: In vitro antibacterial activity against Staphylococcus aureus Smith (A9537); assay type: functional; conditions: Staphylococcus aureus; read-out: MIC
Staphylococcus aureus [11] = assay: In vivo efficacy in systemic infection due to Staphylococcus aureus Smith (A 9537) in mice; assay type: functional; conditions: read-out: PD50
Escherichia coli [12] = assay: In vivo efficacy in systemic infection due to Escherichia coli (A 15119) in mice; assay type: functional; conditions: read-out: PD50
Klebsiella pneumoniae [13] = assay: In vivo efficacy in systemic infection due to Klebsiella pneumoniae (A 9664) in mice; assay type: functional; conditions: read-out: PD50
Morganella morganii [14] = assay: In vitro antibacterial activity against M. morganii(A 15153); assay type: functional

| SMILES | AUC (Canis familiaris) [µg/mL] | Cmax [1] [ng/mL] | half-life [2] [h] | dose excreted at 24 h [3] [%] | MIC (Escherichia coli [4]) [µg/mL] | MIC (Enterobacter cloacae) [µg/mL] | MIC (Klebsiella pneumoniae [5]) [µg/mL] | MIC (Morganella morganii [6]) [µg/mL] | LD50 [7] [mg/kg] | MIC (Pseudomonas aeruginosa [8]) [µg/mL] | ED50 (Pseudomonas aeruginosa [9]) [mg/kg] | MIC (Staphylococcus aureus [10]) [µg/mL] | ED50 (Staphylococcus aureus [11]) [mg/kg] | ED50 (Escherichia coli [12]) [mg/kg] | ED50 (Klebsiella pneumoniae [13]) [mg/kg] | MIC (Morganella morganii [14]) [µg/mL] |
| --- | --- | --- | --- | --- | --- | --- | --- | --- | --- | --- | --- | --- | --- | --- | --- | --- |
| CC(C)(C)n1cc(C(=O)O)c(=O)c2cc(F)c(N3CCNCC3)cc21 | 50 | 6400 | 4.4 | 17 | 0.06 (≈ 0.173 µM) | 0.13 (≈ 0.374 µM) | 0.13 (≈ 0.374 µM) | 0.25 (≈ 0.72 µM) | > 2500 | 0.5 (≈ 1.44 µM) | 18 | 0.06 (≈ 0.173 µM) | 8 | – | – | – |
| CC1(C)CC1n1cc(C(=O)O)c(=O)c2cc(F)c(N3CCNCC3)cc21 (configuration not stated) | – | – | – | – | 1 (≈ 2.78 µM) | 4 (≈ 11.1 µM) | 2 (≈ 5.56 µM) | 8 (≈ 22.3 µM) | – | 32 (≈ 89 µM) | – | 1 (≈ 2.78 µM) | – | – | – | – |
| C=C(C)n1cc(C(=O)O)c(=O)c2cc(F)c(N3CCNCC3)cc21 | – | – | – | – | 0.13 (≈ 0.392 µM) | 0.06 (≈ 0.181 µM) | 0.25 (≈ 0.754 µM) | 0.13 (≈ 0.392 µM) | – | 0.5 (≈ 1.51 µM) | – | 0.5 (≈ 1.51 µM) | – | – | – | – |
| CCC(C)(C)n1cc(C(=O)O)c(=O)c2cc(F)c(N3CCNCC3)cc21 | – | – | – | – | 0.5 (≈ 1.38 µM) | 1 (≈ 2.77 µM) | 1 (≈ 2.77 µM) | 4 (≈ 11.1 µM) | – | 4 (≈ 11.1 µM) | – | 0.25 (≈ 0.692 µM) | – | – | – | – |
| CC1(n2cc(C(=O)O)c(=O)c3cc(F)c(N4CCNCC4)cc32)CCC1 | – | – | – | – | 0.25 (≈ 0.696 µM) | 1 (≈ 2.78 µM) | 2 (≈ 5.56 µM) | 0.5 (≈ 1.39 µM) | – | 8 (≈ 22.3 µM) | – | 0.5 (≈ 1.39 µM) | – | – | – | – |
| O=C(O)c1cn(C2CC=CC2)c2cc(N3CCNCC3)c(F)cc2c1=O | – | – | – | – | 1 (≈ 2.8 µM) | 8 (≈ 22.4 µM) | 1 (≈ 2.8 µM) | 8 (≈ 22.4 µM) | – | 8 (≈ 22.4 µM) | – | 2 (≈ 5.6 µM) | – | – | – | – |
| C=C(C)n1cc(C(=O)O)c(=O)c2cc(F)c(N3CCNCC3)nc21 | – | – | – | – | 0.13 (≈ 0.391 µM) | 0.25 (≈ 0.752 µM) | 0.13 (≈ 0.391 µM) | 0.5 (≈ 1.5 µM) | – | 2 (≈ 6.02 µM) | 20 | 0.5 (≈ 1.5 µM) | 15 | – | – | – |
| CC1CCC1n1cc(C(=O)O)c(=O)c2cc(F)c(N3CCNCC3)cc21 (configuration not stated) | – | – | – | – | 2 (≈ 5.56 µM) | 32 (≈ 89 µM) | 4 (≈ 11.1 µM) | 16 (≈ 44.5 µM) | – | 32 (≈ 89 µM) | – | 4 (≈ 11.1 µM) | – | – | – | – |
| O=C(O)c1cn(C2CCC2)c2cc(N3CCNCC3)c(F)cc2c1=O | – | – | – | – | 0.13 (≈ 0.376 µM) | 1 (≈ 2.9 µM) | 0.13 (≈ 0.376 µM) | 0.5 (≈ 1.45 µM) | – | 1 (≈ 2.9 µM) | – | 0.5 (≈ 1.45 µM) | – | – | – | – |
| O=C(O)c1cn(C2CC2)c2c(F)c(N3CCNCC3)c(F)cc2c1=O | – | – | – | – | 0.03 (≈ 0.0859 µM) | 0.06 (≈ 0.172 µM) | 0.06 (≈ 0.172 µM) | 0.008 (≈ 0.0229 µM) | – | 0.25 (≈ 0.716 µM) | – | 0.13 (≈ 0.372 µM) | – | – | – | – |
| CC(C)(C)n1cc(C(=O)O)c(=O)c2cc(F)c(N3CCNCC3)nc21 | 50 | 5800 | 4.8 | 12 | 0.015 (≈ 0.0431 µM) | 0.06 (≈ 0.172 µM) | 0.13 (≈ 0.373 µM) | – | > 2500 | 1 (≈ 2.87 µM) | 12 | 0.06 (≈ 0.172 µM) | 1.1 | 2.4 | 5 | 0.25 (≈ 0.718 µM) |
| CC(C)n1cc(C(=O)O)c(=O)c2cc(F)c(N3CCNCC3)cc21 | – | – | – | – | 0.5 (≈ 1.5 µM) | 2 (≈ 6 µM) | 1 (≈ 3 µM) | 0.25 (≈ 0.75 µM) | – | 1 (≈ 3 µM) | – | 1 (≈ 3 µM) | – | – | – | – |
| O=C(O)c1cn(Cc2ccccc2)c2cc(N3CCNCC3)c(F)cc2c1=O | – | – | – | – | 0.25 (≈ 0.655 µM) | 0.5 (≈ 1.31 µM) | 0.5 (≈ 1.31 µM) | 4 (≈ 10.5 µM) | – | 0.5 (≈ 1.31 µM) | – | 0.5 (≈ 1.31 µM) | – | – | – | – |
| CC1(n2cc(C(=O)O)c(=O)c3cc(F)c(N4CCNCC4)cc32)CC1 | – | – | – | – | 0.06 (≈ 0.174 µM) | 0.5 (≈ 1.45 µM) | 0.25 (≈ 0.724 µM) | 0.25 (≈ 0.724 µM) | – | 0.5 (≈ 1.45 µM) | – | 0.25 (≈ 0.724 µM) | – | – | – | – |
